Assay results taken from patent US12392768B2, “Methods for determining blood gas or metabolic parameters” (RADIOMETER MEDICAL APS, priority 2019, dated 2025).
“Also recorded” adds a separate entry of the source. Counter-ions that a name gives are not always drawn.

Experiments:
[1] = system: platelets; assay: Manual count of single platelets and platelet aggregates in heparinized blood with anti-platelet drug candidates (Example 1); conditions: heparinized venous blood; for count of single platelets compared to EDTA reference / number of platelet aggregates compared to EDTA control: two concentration levels per drug; for platelet count compared to LiHep and PicoSAM controls: L-Arginine 600 μM and 6 mM, dipyridamole 10 and 100 μM
Procedure: Each experiment was conducted on a separate day with blood from one voluntary donor testing one anti-platelet drug candidate. For each experiment PICO70 syringe samplers (Radiometer Medical ApS) were prepared just before sample drawing. For “LiHep” (Liquid Heparin) conditions, PICO70 samplers were emptied of the gold ball and heparin brick and 15 μl of aqueous liquid balanced heparin comprising heparin lithium (Celsus Laboratories) and heparin sodium (Celsus Laboratories) (final heparin conc. 60 IU/mL blood) and 15 μl of the solvent of the tested drug were added. For “PicoSAM” conditions, unmodified PICO70 samplers (with gold ball and heparin brick) were used and 15 μl of the solvent of the respective tested drug was added. For “LiHep xxx drug” conditions, PICO70 samplers were emptied as described for LiHep and 15 μl of liquid balanced heparin (final heparin conc. 60 IU/mL blood) and 15 μl of the dissolved tested drug were added. For “PicoSAM xxx drug” conditions, unmodified PICO70 samplers (with gold ball and heparin brick) were used and 15 μl of the dissolved tested drug was added. […] 600 μM and 6 mM) and dipyridamole (Sigma, D9766; dissolved in 1:10 or 1:100 DMSO in saline, final conc. 10 and 100 μM). An EDTA tube (BD Vacutainer with spray-coated K2EDTA, 10 ml) and duplicate samples of all conditions of PICO70 syringe samplers were filled by drawing venous blood via a butterfly needle using a sealed VTC (vented tip cap) to fill the otherwise self-aspirating PICO70 samplers with 1.5 mL venous whole blood. Samplers were inverted 8 times immediately after drawing to insure proper anti-coagulation of the samples. The blood samples were mixed gently by hand (samplers without gold ball) or on a SAM mixer (Radiometer Medical ApS) for 15 minutes after drawing the sample. Mixed samples were fixed immediately with 10% formalin solution (1:1 dilution of blood in formalin) for at least 10 minutes and further diluted 1:10 in platelet dilution solution to hemolyze red blood cells (RBCs) to assessed manual platelet count using a hemocytometer. […] Single platelet counts were adjusted for dilution with liquid heparin and or dissolved drug solution to calculate single platelet concentrations.

[2] = system: platelets and WBCs; assay: Wet mount images of stained and hemolyzed blood samples (Example 3); type: cell-based; conditions: for WBC aggregates / platelet satellinism (platelets binding to WBCs) / platelets (single or aggregated) in stained wet mounts: PicoSAM samples, tirofiban 1 μM, eptifibatide 20 μM, iloprost 100 nM, EDTA anti-coagulated blood
Procedure: Venous blood samples were drawn and mixed as described before in Example 1 and used to prepare stained wet mounts images. Blood samples were mixed with a staining and hemolyzing agent (methylene blue and deoxycholic acid, respectively) and incubated at 47° C. in a water bath for 30 seconds. Stained and hemolyzed blood samples were then prepared in wet mount samples on a glass slide and covered with a glass coverslip. Images of stained samples were then acquired with a Leica 750 microscope using a 40× air objective in bright field mode. An image processing software (FIJI, ImageJ) was used to select regions of interest (ROIs) of representative stained WBCs from the images.

[3] = system: platelets; assay: Microscopic wet mount images of fixed blood samples, platelet aggregation (Example 2); type: cell-based; conditions: 40x phase contrast, eptifibatide 20 μM added to heparin
Text: Venous blood samples drawn, mixed and fixed with 10% formalin solution, as described before in Example 1 were used to prepare wet mounts on a glass slide and covered with a glass coverslip. Wet mount samples of fixed blood cells were then imaged with a Leica 750 microscope using a 40× phase-contrast air objective.

[4] = system: platelets; assay: ABX platelet count, automated hematology analyzer (Example 4); type: cell-based; conditions: for Mean ABX PLT count: Iloprost 1 μM in PicoSAM, EDTA reference
Procedure: Blood samples drawn and mixed after 15 minutes as described above were assessed with an automated hematology analyzer (Horiba, ABX Pentra 60C+) (ABX) for complete blood count (CBC) with 5-diff including WBC concentration, platelet concentration, mean platelet volume (MPV), concentrations and fractions of neutrophils, lymphocytes, monocytes, eosinophils and basophils, RBC concentration, hematocrit, hemoglobin concentration, RBC descriptive parameters (MCV, MCH, MCHC, RDW). Samples were prepared from several donors. Measured platelet concentration was used to compare to manually assessed platelet concentrations of iloprost heparin samples (in PICO70 samplers) and EDTA anti-coagulated samples. For control, EDTA samples with no platelet aggregates are used as reference measurement for the measured automated ABX platelet concentration.

[5] = system: platelets; assay: Manual platelet count versus EDTA reference (Example 4); type: cell-based; conditions: for Mean Manual PLT count: Iloprost 1 μM in PicoSAM, EDTA reference
Procedure: For each experiment PICO70 syringe samplers (Radiometer Medical ApS) were prepared just before sample drawing. For “LiHep” (Liquid Heparin) conditions, PICO70 samplers were emptied of the gold ball and heparin brick and 15 μl of aqueous liquid balanced heparin comprising heparin lithium (Celsus Laboratories) and heparin sodium (Celsus Laboratories) (final heparin conc. 60 IU/mL blood) and 15 μl of the solvent of the tested drug were added. For “PicoSAM” conditions, unmodified PICO70 samplers (with gold ball and heparin brick) were used and 15 μl of the solvent of the respective tested drug was added. For “LiHep xxx drug” conditions, PICO70 samplers were emptied as described for LiHep and 15 μl of liquid balanced heparin (final heparin conc. 60 IU/mL blood) and 15 μl of the dissolved tested drug were added. For “PicoSAM xxx drug” conditions, unmodified PICO70 samplers (with gold ball and heparin brick) were used and 15 μl of the dissolved tested drug was added. […] An EDTA tube (BD Vacutainer with spray-coated K2EDTA, 10 ml) and duplicate samples of all conditions of PICO70 syringe samplers were filled by drawing venous blood via a butterfly needle using a sealed VTC (vented tip cap) to fill the otherwise self-aspirating PICO70 samplers with 1.5 mL venous whole blood. Samplers were inverted 8 times immediately after drawing to insure proper anti-coagulation of the samples. The blood samples were mixed gently by hand (samplers without gold ball) or on a SAM mixer (Radiometer Medical ApS) for 15 minutes after drawing the sample. Mixed samples were fixed immediately with 10% formalin solution (1:1 dilution of blood in formalin) for at least 10 minutes and further diluted 1:10 in platelet dilution solution to hemolyze red blood cells (RBCs) to assessed manual platelet count using a hemocytometer. […] Single platelet counts were adjusted for dilution with liquid heparin and or dissolved drug solution to calculate single platelet concentrations.

CCCCS(=O)(=O)N[C@@H](Cc1ccc(OCCCCC2CCNCC2)cc1)C(=O)O [Tirofiban, tirofiban hydrochloride monohydrate]
count of single platelets compared to EDTA reference [1]: comparable
number of platelet aggregates compared to EDTA control [1]: no or few
WBC aggregates [2]: WBC aggregates were also observed
platelet satellinism (platelets binding to WBCs) [2]: platelet satellinism
platelets (single or aggregated) in stained wet mounts [2]: single platelets

N=C(N)NCCC[C@H](N)C(=O)O [L-Arginine]
count of single platelets compared to EDTA reference [1]: decreased
number of platelet aggregates compared to EDTA control [1]: higher
platelet count compared to LiHep and PicoSAM controls [1]: slightly higher

Clc1ccccc1CN1CCc2sccc2C1 [Ticlopidine, ticlopidine hydrochloride]
count of single platelets compared to EDTA reference [1]: similar

Heparin
platelet aggregates in microscopic images of blood samples [3]: allows or even potentiates platelet aggregation; also recorded: showed platelet aggregates

eptifibatide acetate
platelet aggregates in microscopic images of blood samples [3]: cannot be observed; also recorded: cannot be seen
count of single platelets compared to EDTA reference [1]: comparable
number of platelet aggregates compared to EDTA control [1]: no or few
WBC aggregates [2]: WBC aggregates were also observed
platelet satellinism (platelets binding to WBCs) [2]: platelet satellinism
platelets (single or aggregated) in stained wet mounts [2]: single platelets

O=C(O)CN(CCN(CC(=O)O)CC(=O)O)CC(=O)O [EDTA, Ethylenediaminetetraacetic acid]
Mean ABX PLT count ([4]; Donor ID 4): 200 PLT/nl
Mean ABX PLT count ([4]; Donor ID 5): 259 PLT/nl
Mean ABX PLT count ([4]; Donor ID 6): 185 PLT/nl
Mean ABX PLT count ([4]; Donor ID 7): 240 PLT/nl
Mean ABX PLT count ([4]; Donor ID 8): 202 PLT/nl
Mean ABX PLT count ([4]; Donor ID 9): 236 PLT/nl
Mean Manual PLT count ([5]; Donor ID 4): 200 PLT/nl
Mean Manual PLT count ([5]; Donor ID 5): 242 PLT/nl
Mean Manual PLT count ([5]; Donor ID 6): 189 PLT/nl
Mean Manual PLT count ([5]; Donor ID 7): 249 PLT/nl
Mean Manual PLT count ([5]; Donor ID 8): 207 PLT/nl
Mean Manual PLT count ([5]; Donor ID 9): 255 PLT/nl
platelet aggregates in microscopic images of blood samples [3]: prevents platelet activation and maintains single platelets; also recorded: cannot be seen
WBC aggregates [2]: same results
platelet satellinism (platelets binding to WBCs) [2]: same results
platelets (single or aggregated) in stained wet mounts [2]: same results

CC#CCC(C)[C@H](O)/C=C/[C@@H]1[C@H]2C/C(=C/CCCC(=O)O)C[C@H]2C[C@H]1O (stereo partly drawn) [Iloprost, iloprost]
Mean ABX PLT count ([4]; Donor ID 4): 204 PLT/nl
Mean ABX PLT count ([4]; Donor ID 5): 253 PLT/nl
Mean ABX PLT count ([4]; Donor ID 6): 173 PLT/nl
Mean ABX PLT count ([4]; Donor ID 7): 233 PLT/nl
Mean ABX PLT count ([4]; Donor ID 8): 191 PLT/nl
Mean ABX PLT count ([4]; Donor ID 9): 216 PLT/nl
average performance of platelet count compared to EDTA samples as reference, ABX platelet count ([4]; PicoSAM 1 μM iloprost, seven donors): 97%
Mean Manual PLT count ([5]; Donor ID 4): 198 PLT/nl
Mean Manual PLT count ([5]; Donor ID 5): 242 PLT/nl
Mean Manual PLT count ([5]; Donor ID 6): 154 PLT/nl
Mean Manual PLT count ([5]; Donor ID 7): 247 PLT/nl
Mean Manual PLT count ([5]; Donor ID 8): 203 PLT/nl
Mean Manual PLT count ([5]; Donor ID 9): 202 PLT/nl
average performance of platelet count compared to EDTA samples as reference, manual count ([5]; PicoSAM 100 nM iloprost, one donor): 97%
average performance of platelet count compared to EDTA samples as reference, manual count ([5]; PicoSAM 1 μM iloprost, eight donors): 93%
count of single platelets compared to EDTA reference [1]: comparable
number of platelet aggregates compared to EDTA control [1]: no or few
WBC aggregation in the blood sample [2]: very low WBC aggregation
WBC aggregates [2]: not platelet satellinism or WBC aggregates
platelet satellinism (platelets binding to WBCs) [2]: not platelet satellinism
platelets (single or aggregated) in stained wet mounts [2]: single platelets

OCCN(CCO)c1nc(N2CCCCC2)c2nc(N(CCO)CCO)nc(N3CCCCC3)c2n1 [Dipyridamole, dipyridamole]
platelet count compared to LiHep and PicoSAM controls [1]: slightly higher
